For experiment [1], the system named is GFAP-positive reactive astrocytes. The experiment can be described thus: GFAP staining, astrocytosis in aged brains. It counts as in vivo, rat. Particulars: i.p.; 18-month old rats; 3 d after injection; vs vehicle p<0.05, particularly 0.12 and 12 mg/kg. Here is the method:
To carry out these studies, tissues were fixed and embedded in paraffin and sections obtained using standard methods. Coronal sections (6 μm) containing the level of the hippocampus were cut and mounted on chrome-alum-coated slides for staining. The sections were deparaffinized in xylene, dehydrated in a series of ethanol and incubated in 0.1 M phosphate buffered saline (PBS).
Primary antibodies against glial fibrillary acidic protein (GFAP) and proliferating cell nuclear antigen (PCNA) were used to mark reactive glial cells and cells undergoing apoptosis and proliferation, respectively. […]
Control sections were processed in the same way except the primary antibody was omitted from the incubation solution. The number of PCNA positive cells was counted in the subventricular zone and the GFAP positive cells was scored in the cerebral cortex.
Using GFAP as a marker for reactive astrocytes, the number of GFAP-positive cells was counted in the CA4 sub-region of the hippocampus of aged rats treated with G-2MeP or vehicle. […]
We also evaluated effects of G-2-MePE on astrocytosis in the CA4 sub-region of the hippocampus in aged rats. […]
GFAP-positive cells were counted using a computerised program (Discovery 1). G-2-MePE was administered intra-peritoneally and the numbers of GFAP-positive cells were assessed 3d after the injection. […]

For experiment [2], the system named is hippocampal CA1 neurons of mecp2 null mutant mice. The experiment is described as follows: Golgi staining, dendrite morphology in mecp2 knockout mice. It counts as in vivo, mouse. Here is the method:
We assess the effects of G-2-MePE treatment on dendrites. Transgenic mecp2 knockout mice (n=15 to 20) were administered G-2-MePE intraperitoneally at a dose of 20 mg/kg once daily. Following sacrifice dendritic spine density, spine length and aborization were examined after Golgi staining after nine weeks, as per the Table 1 below:
Dendritic length was assessed by distance from the soma of representative hippocampal CA1 neurons from 9 week old male mecp2 null mutant mice treated with either saline (3 neurons analysed from 3 separate mice, n=9) or G-2-MePE (20 mg/kg i.p. 1/day, from week 4; 3 neurons analysed from 3 separate mice, n=9).

For experiment [3], the system named is MeCP2 knockout mice. The experiment can be described thus: Nocturnal activity measurements. Particulars: 20 mg/kg i.p. daily; after 6 weeks. It is filed as in vivo, mouse. Here is the method: For the survival measurements, the nocturnal activity analysis and the immunoblot analysis, G-2-MePE (synthesised Albany Molecular Research Inc. (Albany, N.Y.) and supplied by Neuren Pharmaceuticals Limited) is administered daily via intra-peritoneal injections (20 mg/kg, vehicle=saline, 0.01% BSA). The treatment starts at PI 5 and is maintained throughout the course of the experiments. For intracellular physiology experiments, the mice are injected daily with G-2-MePE (20 mg/kg body weight, vehicle=saline, 0.01% BSA) for 2 weeks, from P15 to P28-P32 when they are used for acute slice preparation. For optical imaging experiments, mice are injected with G-2-MePE (20 mg/kg body weight, vehicle=saline, 0.01% BSA) daily from the day of the lid suture to the day of imaging.
Spontaneous motor activity is measured by using an infrared beam-activated movement-monitoring chamber (Opto-Varimax-MiniA; Columbus Instruments, Columbus, Ohio). […] Movement is monitored during the normal 12-h dark cycle (7 p.m. to 7 a.m.). […]
MeCP2−/y mice develop Rett-like symptoms beginning at 4-6 weeks of age when they progressively become lethargic, develop gait ataxia and die between 10 and 12 weeks of age (Chen et al., 2001). Baseline locomotor activity is also recorded in mice after 6 weeks by counting nocturnal infrared beam crossing events within a caged area.

Setting [4] is: 20 mg/kg i.p. once daily, 9 weeks of age.

Molecules are shown by their SMILES. Non-standard residues stand in square brackets, D forms with d. Residues, ends and D or L forms follow the SMILES beside them. αMeP = C[C@@]1(C(=O)O)CCCN1

Take `C[C@@]1(C(=O)N[C@@H](CCC(=O)O)C(=O)O)CCCN1C(=O)CN` [Example G-2-MePE, Glycyl-L-2-methylprolyl-L-glutamic acid] (H-Gly-[αMeP]-Glu-OH): the “number of reactive astrocytes (GFAP) in the CA4 region of the hippocampus” value in experiment [1] was “reduced”. In addition, the “dendritic length as a function of distance from the soma” value in experiment [2] (20 mg/kg i.p. 1/day from week 4, vs saline, FIG. 24) is listed as “longer dendrites”. In experiment [2] (setting [4]), the dendritic arborization result is “improved” and the dendritic spine length result is on record as “increased”. The “locomotor activity levels (nocturnal infrared beam crossing)” value in experiment [3] is “elevates”.

These data come from patent US9212204B2, “Treatment of rett syndrome using glycyl-L-2-methylprolyl-L-glutamic acid” (priority 2011, dated 2015).
